What was measured:
[1] = Reaction rates with butyraldehyde measured by HPLC-ICP-MS (Method B); format: physicochemical; settings: Method b: butyraldehyde 100 μM, probe 25 μM, pH 7.40
Experimental: Method B: Reaction Rates of Compounds with Butyraldehyde Measured by HPLC-ICP-MS
The reactions were conducted in pH 7.40 phosphate-buffered with butyraldehyde concentration of 100 μM and hydrazine probes at 25 μM. Concentrations of unreacted starting material and condensation products were determined at 10 min time intervals over 2 hours based on their relative integrations. The values were fit to a standard first order rate constant linear equation and the rate constant was extracted from the slope.
Reaction with Butyraldehyde Monitored by HPLC-ICP-MS
Reactions were conducted in pH 7.4 phosphate-buffered saline with butyraldehyde concentration of 100 μM and hydrazine probes at 25 μM. Concentrations of unreacted starting material and condensation products were determined based on their relative integrations at 12 min time intervals over 2 hours.

[2] = Affinity measurements of Gd^3+ complex with butyraldehyde (HPLC-ICP-MS); format: physicochemical
Experimental: FIG. 43A. […] FIG. 43B. Affinity measurements of Gd^3+ complex with butyraldehyde. Concentration-dependent binding of the probes to butyraldehyde as determined by HPLC-ICP-MS (pH 7.4 in PBS, 12 h).

[3] = target: T1, BSA-ALD (Bos taurus, UniProt P02769); assay: On/off rate with oxidized BSA-ALD; format: binding, bovine; settings: for fold higher initial on rate / reactivity with BSA-Ald compared to Gd-CHyd: BSA-Ald 10 mg/mL in PBS
T1 construct: made in house; host or cells: no expression host: BSA oxidised chemically with sodium ascorbate, ferric chloride and H2O2, then desalted on PD-10
Experimental: On Off Rate with Oxidized BSA-ALD:
BSA-ALD (10 mg/mL) was incubated with 200 μM corresponding Gd or Mn complex at 37° C. in pH 7.4 PBS), with a total volume of 300 μL. The dynamic longitudinal (T1) relaxation time were measured using a Bruker mq60 Minispec at 1.41 T and 37° C. After 24 hours, protein-bound and protein-free solutions were separated by ultrafiltration. Then 200 μL PBS was added to the residue to dissolve the protein bound species. The change of longitudinal (T1) relaxation time was then measured in Bruker mq60 Minispec at 1.41 T and 37° C.

[4] = target: T1, BSA-ALD; assay: Binding yield measurements of Gd^3+ complex with BSA^Ald (ultrafiltration, ICP-MS); parameters: species or system bovine; settings: pH 7.4, PBS, 37° C., 12 h, ultrafiltration 5,000 Da cut-off
Experimental: FIG. 48. […] Binding concentration of the probes to BSA^Ald (pH 7.4, PBS, 37° C., 12 h) as determined by ICP-MS following an ultrafiltration (5,000 Da cut-off) to separate the protein-bound probe from the unbound probe. Slope gives the binding yield.
Alternatively, preparation of BSA^Ald and binding of Gd^3+ probe to protein was carried out according to modified procedures. To a solution of bovine serum albumin (BSA) (100 mg) dissolved in phosphate buffered saline (4 mL, pH 7.4, 0.25 mM) was added sodium ascorbate (20 mg), ferric chloride (120 μL, 10 mM) and 20 μL H2O2 (30% w). The reaction was stirred at 37° C. for 24 h, and sodium ascorbate (20 mg) was added repeatedly every 8 h. After 24 h, the protein was purified using PD-10 Sephadex G25 desalting columns (GE Healthcare), eluted with PBS. Protein concentration was assessed using the ‘Micro BCA Protein Assay Kit’ (Thermo Scientific, 23235). Protein carbonyl concentration was determined by ‘Protein Carbonyl Content Assay Kit’ (Sigma-Aldrich, MAK094-1KT). […] The protein solutions were kept at a concentration of 20 mg/mL for further use.

[5] = Stability of compounds in human plasma; format: in vitro ADME; settings: 37° C., 2 or 3 hours
Experimental: Stability of Compounds in Human Plasma:
A 16 μL aliquot of the Gd or Mn complex (1.0 mM) was added to 500 μL of human plasma (Lampire Biological laboratories). The solution was then incubated for 2 or 3 hours at 37° C. Aliquots (50 μL) were removed at 1, 2 or 3 hours. Proteins were precipitated by the addition of 150 μL of acetonitrile and removed following centrifugation. The supernatant was then analyzed using HPLC-ICP-MS. No unchelated gadolinium was observed nor the appearance of any new Gd/Mn-containing species.

[6] = tested on: ECM proteins from fibrotic rat liver; assay: Relaxivity measurements in ECM; format: binding; settings: for relaxivity in ECM: PBS, pH 7.4, 2 h, 37° C., 1.41T; for relaxivity in ECM with 100-fold excess of hydrazine: aldehydes blocked with N2H4
Experimental: Liver fibrosis was induced in male Sprague Dawley rats by ligation of the common bile duct (CD®, Charles River Labs, Wilmington, MA). Ten days after common bile duct ligation, the fibrotic liver was harvested and sequential extractions were performed using the CNMCS (Cytosol/Nucleus/Membrane/Cytoskeleton) Compartmental Protein Extraction kit (Cytomol, Union City, CA) according to manufacturer's instructions. In brief, frozen tissues (150-200 mg) were homogenized and with solvents provided in the kit to sequentially to remove: cytosolic proteins, nuclear proteins, membrane proteins, and cytoskeletal proteins, leaving a final insoluble fraction enriched for ECM proteins.
Relaxivity Measurements in ECM
The enriched ECM proteins from 800 mg of fibrotic rat liver were suspended in 1 ml PBS. The ECM protein concentration was about 10% (5 mg in a 50 μL aliquot determined by weight after lyophilization). An aliquot of the solution (50 μL) was treated for 2 h at 37° C. with the corresponding molecular probe at a range of concentrations (0.01-0.1 mM) and then longitudinal (T1) relaxation measurements was recorded using a Bruker mq60 Minispec at 1.41 T and 37° C. For the blocking experiment with N2H4, a 100 fold-excess of N2H4 referred to the concentration of molecular probe was added to the solution before the incubation. Longitudinal (T1) relaxation times were measured via an inversion recovery experiment using 10 inversions of duration ranging between 0.05×T1 and 10×T1. Relaxivity (r1) was determined from the slope of a plot of 1/T1 vs metal concentration for 4 concentrations.

[7] = Elimination and retention of gadolinium in normal mice; format: in vivo, mouse; settings: for route of elimination (dynamic whole-body MRI): 100 μmol/kg i.v.; for Gadolinium content, Sum, % ID per Organ / Gadolinium content, Bone, % ID per Gram / Gadolinium content, Bone, % ID per Organ / Gadolinium content, Brain, % ID per Gram / Gadolinium content, Brain, % ID per Organ / Gadolinium content, Heart, % ID per Gram / Gadolinium content, Heart, % ID per Organ / Gadolinium content, Kidneys, % ID per Gram / Gadolinium content, Kidneys, % ID per Organ / Gadolinium content, Liver, % ID per Gram / Gadolinium content, Liver, % ID per Organ / Gadolinium content, Lung, % ID per Gram / Gadolinium content, Lung, % ID per Organ / Gadolinium content, Muscle, % ID per Gram / Gadolinium content, Muscle, % ID per Organ / Gadolinium content, Serum, % ID per Gram / Gadolinium content, Serum, % ID per Organ / Gadolinium content, Spleen, % ID per Gram / Gadolinium content, Spleen, % ID per Organ / Gadolinium content, Stomach, % ID per Gram / Gadolinium content, Stomach, % ID per Organ: 24 h after injection, 100 μmol/kg; for Gadolinium content, Bone, % ID per Gram / Gadolinium content, Bone, % ID per Organ / Gadolinium content, Brain, % ID per Gram / Gadolinium content, Brain, % ID per Organ / Gadolinium content, Heart, % ID per Gram / Gadolinium content, Heart, % ID per Organ / Gadolinium content, Kidneys, % ID per Gram / Gadolinium content, Kidneys, % ID per Organ / Gadolinium content, Liver, % ID per Gram / Gadolinium content, Liver, % ID per Organ / Gadolinium content, Lung, % ID per Gram / Gadolinium content, Lung, % ID per Organ / Gadolinium content, Muscle, % ID per Gram / Gadolinium content, Muscle, % ID per Organ / Gadolinium content, Serum, % ID per Gram / Gadolinium content, Serum, % ID per Organ / Gadolinium content, Spleen, % ID per Gram / Gadolinium content, Spleen, % ID per Organ / Gadolinium content, Stomach, % ID per Gram / Gadolinium content, Stomach, % ID per Organ: n = 4
Experimental: FIG. 55. […] The liver enhances slightly with first-blood pass but the signal rapidly returns to baseline after 20 min.
At 24 h post-injection (p.i.), >99% of the injected dose of gadolinium was eliminated from the body (Table B).

T1 sequence (P02769 25-607): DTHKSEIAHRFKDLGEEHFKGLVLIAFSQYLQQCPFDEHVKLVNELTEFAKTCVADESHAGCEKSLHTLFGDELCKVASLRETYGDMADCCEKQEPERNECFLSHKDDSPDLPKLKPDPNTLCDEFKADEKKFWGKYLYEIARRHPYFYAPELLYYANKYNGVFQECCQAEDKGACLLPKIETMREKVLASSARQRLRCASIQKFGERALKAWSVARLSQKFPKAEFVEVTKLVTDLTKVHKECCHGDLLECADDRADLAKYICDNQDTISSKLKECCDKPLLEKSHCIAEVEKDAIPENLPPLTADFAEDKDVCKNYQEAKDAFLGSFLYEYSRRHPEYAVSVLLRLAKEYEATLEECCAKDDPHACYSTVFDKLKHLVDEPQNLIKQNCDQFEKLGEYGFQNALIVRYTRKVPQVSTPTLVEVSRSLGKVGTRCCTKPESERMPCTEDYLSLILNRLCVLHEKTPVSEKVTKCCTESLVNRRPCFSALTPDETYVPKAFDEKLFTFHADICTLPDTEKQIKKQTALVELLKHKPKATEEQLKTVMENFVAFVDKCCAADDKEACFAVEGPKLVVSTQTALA

Compound	k (second order rate constant) [1]	fold improved affinity over Gd-11 and Gd-CHyd [2]	fold higher initial on rate / reactivity with BSA-Ald compared to Gd-CHyd [3]	equilibrium binding to BSA^Ald (binding yield) [4]	stability in human plasma (HPLC-ICP-MS) [5]	relaxivity in ECM [6]	relaxivity in ECM with 100-fold excess of hydrazine [6]	route of elimination (dynamic whole-body MRI) [7]	Gadolinium content, Sum, % ID per Organ [7]	Gadolinium content, Bone, % ID per Gram [7]	Gadolinium content, Bone, % ID per Organ [7]	Gadolinium content, Brain, % ID per Gram [7]	Gadolinium content, Brain, % ID per Organ [7]	Gadolinium content, Heart, % ID per Gram [7]	Gadolinium content, Heart, % ID per Organ [7]	Gadolinium content, Kidneys, % ID per Gram [7]	Gadolinium content, Kidneys, % ID per Organ [7]	Gadolinium content, Liver, % ID per Gram [7]	Gadolinium content, Liver, % ID per Organ [7]	Gadolinium content, Lung, % ID per Gram [7]	also measured
NN1CCN(C(=O)CCC(C(=O)[O-])N2CCN(CC(=O)[O-])CCN(C(CCC(=O)N3CCN(N)CC3)C(=O)[O-])CCN(CC(=O)[O-])CC2)CC1.[Gd+3] (stereo not drawn) [Gd-10, trans-1,7-Gd-(CHyd)2]	3.5 M⁻¹ s⁻¹	2 fold	3 fold	28.1%	lack of de-chelation or formation of Gd-containing metabolites	7.2 mM⁻¹ s⁻¹	6.7 mM⁻¹ s⁻¹	eliminated exclusively via the kidneys into the bladder	0.584 % ID per Organ	0.0180 ± 0.00486 % ID per Gram	0.0469 ± 0.0126 % ID per Organ	0.00206 ± 0.000288 % ID per Gram	0.000776 ± 0.000169 % ID per Organ	0.0219 ± 0.00212 % ID per Gram	0.00203 ± 0.000132 % ID per Organ	1.45 ± 0.262 % ID per Gram	0.365 ± 0.0315 % ID per Organ	0.105 ± 0.00715 % ID per Gram	0.0572 ± 0.0426 % ID per Organ	0.157 ± 0.00422 % ID per Gram	Gadolinium content, Lung, % ID per Organ [7]: 0.0197 ± 0.00107 % ID per Organ; Gadolinium content, Muscle, % ID per Gram [7]: 0.00886 ± 0.000914 % ID per Gram; Gadolinium content, Muscle, % ID per Organ [7]: 0.0709 ± 0.0073 % ID per Organ; Gadolinium content, Serum, % ID per Gram [7]: 0.00169 ± 0.000259 % ID per Gram; Gadolinium content, Serum, % ID per Organ [7]: 0.00398 ± 0.000175 % ID per Organ; Gadolinium content, Spleen, % ID per Gram [7]: 0.165 ± 0.0817 % ID per Gram; Gadolinium content, Spleen, % ID per Organ [7]: 0.0086 ± 0.00085 % ID per Organ; Gadolinium content, Stomach, % ID per Gram [7]: 0.0414 ± 0.02775 % ID per Gram; Gadolinium content, Stomach, % ID per Organ [7]: 0.00869 ± 0.00207 % ID per Organ
NN1CCN(C(=O)CCC(C(=O)[O-])N2CCN(CC(=O)[O-])CCN(CC(=O)[O-])CCN(C(CCC(=O)N3CCN(N)CC3)C(=O)[O-])CC2)CC1.[Gd+3] (stereo not drawn) [Gd-9, cis-1,4-Gd-(CHyd)2]	3.6 M⁻¹ s⁻¹	2 fold	6 fold	39.2%	lack of de-chelation or formation of Gd-containing metabolites	7.8 mM⁻¹ s⁻¹	6.6 mM⁻¹ s⁻¹	eliminated exclusively via the kidneys into the bladder	0.625 % ID per Organ	0.0144 ± 0.0125 % ID per Gram	0.0455 ± 0.0174 % ID per Organ	0.00336 ± 0.00277 % ID per Gram	0.0013 ± 0.00125 % ID per Organ	0.0788 ± 0.0151 % ID per Gram	0.00708 ± 0.000802 % ID per Organ	1.33 ± 0.152 % ID per Gram	0.377 ± 0.0103 % ID per Organ	0.0686 ± 0.0102 % ID per Gram	0.0341 ± 0.0250 % ID per Organ	0.166 ± 0.100 % ID per Gram	faster on-rate than monobinder Gd-CHyd [3]: 600%; fold slower off-rate than Gd-CHyd [3]: 1.5 fold; slower off-rate than monobinder Gd-CHyd [3]: 50%; Gadolinium content, Lung, % ID per Organ [7]: 0.0289 ± 0.00394 % ID per Organ; Gadolinium content, Muscle, % ID per Gram [7]: 0.0132 ± 0.00294 % ID per Gram; Gadolinium content, Muscle, % ID per Organ [7]: 0.105 ± 0.0225 % ID per Organ; Gadolinium content, Serum, % ID per Gram [7]: 0.00138 ± 0.000861 % ID per Gram; Gadolinium content, Serum, % ID per Organ [7]: 0.00376 ± 0.00113 % ID per Organ; Gadolinium content, Spleen, % ID per Gram [7]: 0.140 ± 0.0558 % ID per Gram; Gadolinium content, Spleen, % ID per Organ [7]: 0.00618 ± 0.000767 % ID per Organ; Gadolinium content, Stomach, % ID per Gram [7]: 0.114 ± 0.0288 % ID per Gram; Gadolinium content, Stomach, % ID per Organ [7]: 0.0157 ± 0.00274 % ID per Organ

Source: patent publication US20240285808A1, “MOLECULAR PROBES FOR IN VIVO DETECTION OF ALDEHYDES” (The General Hospital Corporation, priority 2021, published 2024)
